Measured values published in publication PMC8730469 (Bioorganic & Medicinal Chemistry Letters, 2022).

target: T1, SARS-CoV-2 M^pro (Severe acute respiratory syndrome coronavirus 2, UniProt P0DTD1); assay: not given; format: biochemical; settings: not given

| Structure (SMILES) | inhibitory activity (in words) |
| --- | --- |
| O=c1[nH]sc2cc(F)ccc12 [Compound 3a] | reduced dramatically |
| O=C(O)Cn1sc2cc(F)ccc2c1=O [Compound 13a] | reduced dramatically |
| COc1cccc2c(=O)n(CC(=O)Nc3ccccc3)sc12 [Compound 16b-9] | decreased the activity drastically |
| O=C(Cn1sc2c(C(F)(F)F)cccc2c1=O)Nc1ccccc1 [Compound 16b-13] | decreased the activity drastically |
| Nc1cccc2c(=O)n(CC(=O)Nc3ccccc3)sc12 [Compound 16b-17] | decreased the activity drastically |

target: T1, SARS-CoV-2 M^pro; assay: fast dilution experiment; settings: Fig. S1 and Table S1

| Structure (SMILES) | reversibility of inhibition |
| --- | --- |
| O=C(Cn1sc2cccc(F)c2c1=O)Nc1ccccc1 [Compound 16b-3] | irreversible inhibitor |
